In ChEMBL document CHEMBL1671830, “Discovery of PSI-353661, a Novel Purine Nucleotide Prodrug for the Treatment of HCV Infection” (ACS Med Chem Lett, 2011):

Tests used:
[1] = Cytotoxicity against human […] cells after 96 hrs by MTS assay; assay type: cell-based
Hepatitis C virus [2] = assay: Antiviral activity against HCV infected in human HuH7 cells by cell-based replicon assay; assay type: functional, Hepacivirus hominis, Huh-7
Hepatitis C virus [3] = assay: Antiviral activity against HCV harboring NS5B polymerase S282T mutant infected in human HuH7 cells by cell-based replicon assay; assay type: functional, Hepacivirus hominis, Huh-7
[4] = Cytotoxicity against human HuH7 cells after 96 hrs by MTS assay; assay type: cell-based, Huh-7
[5] = Cytotoxicity against human HepG2 cells after 96 hrs by MTS assay; assay type: cell-based
[6] = Cytotoxicity against human CEM cells after 96 hrs by MTS assay; assay type: cell-based; conditions: CEM (CCRF-CEM) cells
[7] = Half life in simulated gastrointestinal fluid; assay type: ADME
[8] = Half life in simulated intestinal fluid; assay type: ADME
HepG2 [9] = assay: Cytotoxicity against human HepG2 cells assessed as mitochondrial rDNA level up to 100 uM after 14 days by RT-PCR analysis; assay type: cell-based; conditions: hepg2, 336 h
CCRF-CEM [10] = assay: Cytotoxicity against human CEM cells assessed as mitochondrial COX2 DNA level up to 100 uM after 14 days by RT-PCR analysis; assay type: cell-based; conditions: 336 h
CCRF-CEM [11] = assay: Cytotoxicity against human CEM cells assessed as mitochondrial rDNA level up to 100 uM after 14 days by RT-PCR analysis; assay type: cell-based; conditions: 336 h
HepG2 [12] = assay: Cytotoxicity against human HepG2 cells assessed as mitochondrial COX2 DNA level up to 100 uM after 14 days by RT-PCR analysis; assay type: cell-based; conditions: hepg2, 336 h
[13] = Half life in human plasma; assay type: ADME, cell-free
[14] = Half life in human liver S9 fraction; assay type: ADME, subcellular
Huh-7 = assay: Increase of cellular triphosphate level in human HuH7 cells at 100 uM after 48 hrs by HPLC analysis; assay type: functional
Hepatocyte = assay: Increase of cellular triphosphate level in human primary hepatocytes cells at 100 uM after 24 hrs by HPLC analysis; assay type: functional
Plasma [15] = assay: Metabolic stability in rat plasma assessed as beta-D-2'-Deoxy-2'-R-fluoro-2'-beta-C-methylguanosine level at 60 uCi, po after 6 hrs; assay type: ADME, organism-based; conditions: in vivo
Plasma [16] = assay: Metabolic stability in rat plasma assessed as (2S)-2-((((2R,3R,4R,5R)-5-(2-amino-6-methoxy-9H-purin-9-yl)-4-fluoro-3-hydroxy-4-methyltetrahydrofuran-2-yl)methoxy)(hydroxy)phosphorylamino)propanoic acid level at 60 uCi, po after 1 hr; assay type: ADME, organism-based; conditions: in vivo
Plasma [17] = assay: Metabolic stability in rat plasma assessed as (2S)-2-((((2R,3R,4R,5R)-5-(2-amino-6-methoxy-9H-purin-9-yl)-4-fluoro-3-hydroxy-4-methyltetrahydrofuran-2-yl)methoxy)(hydroxy)phosphorylamino)propanoic acid level at 60 uCi, po after 6 hrs; assay type: ADME, organism-based; conditions: in vivo
Plasma [18] = assay: Metabolic stability in rat plasma assessed as (2S)-isopropyl 2-((((2R,3R,4R,5R)-5-(2-amino-6-methoxy-9H-purin-9-yl)-4-fluoro-3-hydroxy-4-methyltetrahydrofuran-2-yl)methoxy)(phenoxy)phosphorylamino)propanoate level at 60 uCi, po after 1 hr; assay type: ADME, organism-based; conditions: in vivo
Plasma [19] = assay: Metabolic stability in rat plasma assessed as (2S)-isopropyl 2-((((2R,3R,4R,5R)-5-(2-amino-6-methoxy-9H-purin-9-yl)-4-fluoro-3-hydroxy-4-methyltetrahydrofuran-2-yl)methoxy)(phenoxy)phosphorylamino)propanoate level at 60 uCi, po after 6 hrs; assay type: ADME, organism-based; conditions: in vivo
Plasma [20] = assay: Metabolic stability in rat plasma assessed as PSI-353661 level at 60 uCi, po after 1 hr; assay type: ADME, organism-based; conditions: in vivo
Plasma [21] = assay: Metabolic stability in rat plasma assessed as PSI-353661 level at 60 uCi, po after 6 hrs; assay type: ADME, organism-based; conditions: in vivo
Liver [22] = assay: Metabolic stability in rat liver assessed as beta-D-2'-Deoxy-2'-R-fluoro-2'-beta-C-methylguanosine level at 60 uCi, po after 1 hr; assay type: ADME, organism-based; conditions: in vivo
Liver [23] = assay: Metabolic stability in rat liver assessed as beta-D-2'-Deoxy-2'-R-fluoro-2'-beta-C-methylguanosine level at 60 uCi, po after 6 hrs; assay type: ADME, organism-based; conditions: in vivo
Liver [24] = assay: Metabolic stability in rat liver assessed as (2S)-2-((((2R,3R,4R,5R)-5-(2-amino-6-methoxy-9H-purin-9-yl)-4-fluoro-3-hydroxy-4-methyltetrahydrofuran-2-yl)methoxy)(hydroxy)phosphorylamino)propanoic acid level at 60 uCi, po after 1 hr; assay type: ADME, organism-based; conditions: in vivo
Liver [25] = assay: Metabolic stability in rat liver assessed as (2S)-2-((((2R,3R,4R,5R)-5-(2-amino-6-methoxy-9H-purin-9-yl)-4-fluoro-3-hydroxy-4-methyltetrahydrofuran-2-yl)methoxy)(hydroxy)phosphorylamino)propanoic acid level at 60 uCi, po after 6 hrs; assay type: ADME, organism-based; conditions: in vivo
Liver [26] = assay: Metabolic stability in rat liver assessed as ((2R,3R,4R,5R)-5-(2-amino-6-oxo-1H-purin-9(6H)-yl)-4-fluoro-3-hydroxy-4-methyltetrahydrofuran-2-yl)methyl dihydrogen phosphate level at 60 uCi, po after 1 hr; assay type: ADME, organism-based; conditions: in vivo
Liver [27] = assay: Metabolic stability in rat liver assessed as ((2R,3R,4R,5R)-5-(2-amino-6-oxo-1H-purin-9(6H)-yl)-4-fluoro-3-hydroxy-4-methyltetrahydrofuran-2-yl)methyl dihydrogen phosphate level at 60 uCi, po after 6 hrs; assay type: ADME, organism-based; conditions: in vivo
Liver [28] = assay: Metabolic stability in rat liver assessed as ((2R,3R,4R,5R)-5-(2-amino-6-oxo-1H-purin-9(6H)-yl)-4-fluoro-3-hydroxy-4-methyltetrahydrofuran-2-yl)methyl trihydrogen diphosphate level at 60 uCi, po after 1 hr; assay type: ADME, organism-based; conditions: in vivo
Liver [29] = assay: Metabolic stability in rat liver assessed as ((2R,3R,4R,5R)-5-(2-amino-6-oxo-1H-purin-9(6H)-yl)-4-fluoro-3-hydroxy-4-methyltetrahydrofuran-2-yl)methyl trihydrogen diphosphate level at 60 uCi, po after 6 hrs; assay type: ADME, organism-based; conditions: in vivo
Liver [30] = assay: Metabolic stability in rat liver assessed as ((2R,3R,4R,5R)-5-(2-amino-6-oxo-1H-purin-9(6H)-yl)-4-fluoro-3-hydroxy-4-methyltetrahydrofuran-2-yl)methyl tetrahydrogen triphosphate level at 60 uCi, po after 1 hr; assay type: ADME, organism-based; conditions: in vivo
Liver [31] = assay: Metabolic stability in rat liver assessed as ((2R,3R,4R,5R)-5-(2-amino-6-oxo-1H-purin-9(6H)-yl)-4-fluoro-3-hydroxy-4-methyltetrahydrofuran-2-yl)methyl tetrahydrogen triphosphate level at 60 uCi, po after 6 hrs; assay type: ADME, organism-based; conditions: in vivo
Plasma [32] = assay: Metabolic stability in rat plasma assessed as beta-D-2'-Deoxy-2'-R-fluoro-2'-beta-C-methylguanosine level at 60 uCi, po after 1 hr; assay type: ADME, organism-based; conditions: in vivo
Hepatitis C virus [33] = assay: Antiviral activity against HCV by cell-based replicon assay; assay type: functional, Hepacivirus hominis
[34] = Inhibition of HCV NS5B polymerase; design: species or system Hepacivirus hominis

| SMILES | CC50 at 96 h [1] | EC90 (Hepatitis C virus [2]; Hepatitis C virus, Huh-7) | EC90 (Hepatitis C virus [3]; Hepatitis C virus, Huh-7) | CC50 at 96 h [4] | CC50 at 96 h [5] | CC50 at 96 h [6] | Activity (Huh-7) | Activity (Hepatocyte) | also measured |
| --- | --- | --- | --- | --- | --- | --- | --- | --- | --- |
| CCOC(=O)[C@H](C)NP(=O)(OC[C@H]1O[C@@H](n2cnc3c(OC)nc(N)nc32)[C@](C)(F)[C@@H]1O)Oc1ccccc1 (some centres undefined) | 65 µM | 0.0074 µM | 0.011 µM | > 100 µM | 62 µM | 55 µM | – | – | – |
| CC(C)OC(=O)[C@H](C)NP(=O)(OC[C@H]1O[C@@H](n2cnc3c(O)nc(N)nc32)[C@](C)(F)[C@@H]1O)Oc1ccccc1 (some centres undefined) | > 100 µM | 0.75 µM | 0.61 µM | > 100 µM | > 100 µM | > 100 µM | – | – | – |
| C[C@H](NP(=O)(OC[C@H]1O[C@@H](n2cnc3c(O)nc(N)nc32)[C@](C)(F)[C@@H]1O)Oc1ccccc1)C(=O)OC1CCCC1 (some centres undefined) | > 100 µM | 0.18 µM | 0.12 µM | > 100 µM | > 100 µM | > 100 µM | 0.06 mM | 0.04 mM | half-life [7]: 15 h; half-life [8]: > 20 h; Activity (HepG2 [9]): Non-toxic; Activity (CCRF-CEM [10]): Non-toxic; Activity (CCRF-CEM [11]): Non-toxic; Activity (HepG2 [12]): Non-toxic; half-life [13]: > 24 h; half-life [14]: 0.2 h |
| CCOc1nc(N)nc2c1ncn2[C@@H]1O[C@H](COP(=O)(N[C@@H](C)C(=O)OC)Oc2ccccc2)[C@@H](O)[C@@]1(C)F (some centres undefined) | > 100 µM | 0.016 µM | 0.016 µM | > 100 µM | > 100 µM | 74 µM | – | – | – |
| COC(=O)[C@H](C)NP(=O)(OC[C@H]1O[C@@H](n2cnc3c(N4CCC4)nc(N)nc32)[C@](C)(F)[C@@H]1O)Oc1ccccc1 (some centres undefined) | > 100 µM | 0.09 µM | 0.04 µM | > 100 µM | > 100 µM | 75 µM | 0.16 mM | 0.05 mM | half-life [7]: > 20 h; half-life [8]: > 20 h; Activity (HepG2 [9]): Non-toxic; Activity (CCRF-CEM [10]): Non-toxic; Activity (CCRF-CEM [11]): Non-toxic; Activity (HepG2 [12]): Non-toxic; half-life [13]: 11.6 h; half-life [14]: 0.4 h |
| CC(C)OC(=O)[C@H](C)NP(=O)(OC[C@H]1O[C@@H](n2cnc3c(NC4CC4)nc(N)nc32)[C@](C)(F)[C@@H]1O)Oc1ccccc1 (some centres undefined) | 98 µM | 0.0088 µM | – | 96 µM | > 100 µM | > 100 µM | – | – | – |
| [3H]c1nc2c(OC)nc(N)nc2n1[C@@H]1O[C@H](COP(=O)(O)N[C@@H](C)C(=O)OC(C)C)[C@@H](O)[C@@]1(C)F | – | – | – | – | – | – | – | – | Stability (Plasma [15]): 3848 cpm; Stability (Plasma [16]): 920 cpm; Stability (Plasma [17]): 288 cpm; Stability (Plasma [18]): 1160 cpm; Stability (Plasma [19]): 272 cpm; Stability (Plasma [20]): 1112 cpm; Stability (Plasma [21]): 368 cpm; Stability (Liver [22]): 4224 cpm; Stability (Liver [23]): 11512 cpm; Stability (Liver [24]): 1648 cpm; Stability (Liver [25]): 572 cpm; Stability (Liver [26]): 1828 cpm; Stability (Liver [27]): 1920 cpm; Stability (Liver [28]): 988 cpm; Stability (Liver [29]): 1620 cpm; Stability (Liver [30]): 384 cpm; Stability (Liver [31]): 460 cpm; Stability (Plasma [32]): 1376 cpm |
| COc1nc(N)nc2c1ncn2[C@@H]1O[C@H](CO[P@](=O)(N[C@@H](C)C(=O)OC(C)C)Oc2ccccc2)[C@@H](O)[C@@]1(C)F | – | 0.027 µM | 0.038 µM | – | – | – | 0.07 mM | 0.14 mM | – |
| C[C@@]1(F)[C@H](O)[C@@H](CO)O[C@H]1n1cnc2c(O)nc(N)nc21 | – | – | – | – | – | – | – | – | EC90 (Hepatitis C virus [33]): 69.2 µM |
| COc1nc(N)nc2c1ncn2[C@@H]1O[C@H](COP(=O)(N[C@@H](C)C(=O)OC(C)C)Oc2ccccc2)[C@@H](O)[C@@]1(C)F (stereo in doubt; 23) | > 100 µM | – | – | > 100 µM | 62 µM | > 100 µM | 0.12 mM | 0.12 mM | half-life [7]: 14 h; half-life [8]: > 20 h; Activity (HepG2 [9]): Non-toxic; EC90 (Hepatitis C virus [2]): 0.02 µM; EC90 (Hepatitis C virus [3]): 0.024 µM; Activity (CCRF-CEM [10]): Non-toxic; Activity (CCRF-CEM [11]): Non-toxic; Activity (HepG2 [12]): Non-toxic; half-life [13]: > 24 h; half-life [14]: 0.2 h |
| COc1nc(N)nc2c1ncn2[C@@H]1O[C@H](COP(=O)(N[C@@H](C)C(=O)OC(C)C)Oc2ccccc2)[C@@H](O)[C@@]1(C)F (stereo in doubt; 23b) | – | – | – | – | – | – | 0.17 mM | 0.44 mM | EC90 (Hepatitis C virus [2]): 0.008 µM; EC90 (Hepatitis C virus [3]): 0.011 µM |
| C[C@@]1(F)[C@H](O)[C@@H](COP(=O)(O)OP(=O)(O)OP(=O)(O)O)O[C@H]1n1cnc2c(=O)[nH]c(N)nc21 [PSI-352666] | – | – | – | – | – | – | – | – | IC50 [34]: 5.94 µM |
